Experiment [1] relates to human CD8+ T cells. The experiment is described as follows: Human T cell activation assay (CFSE proliferation). Type of experiment: cell-based. Particulars: various concentrations with 3 μg/ml anti-CD3. The protocol:
(FIG. 5A) DD1α inhibits the activation of human CD4+ T cells and CD8+ T cells. Enriched human CD4+ T cells and CD8+ T cells were stained with CFSE (1 μM) and stimulated with plate-bound anti-CD3 antibody (3 μg/ml) together with 2, 5, or 10 μg/ml of DD1α-Ig proteins or control Ig proteins. The proliferations of CD4+ T or CD8+ T cells were determined by the percentages of CFSE-labeled CD4+ T or CD8+ T cells at the 72-hour culture. The levels of cytokines IFN-γ and TNF-α in culture supernatant were analyzed by ELISA at the 48-hour culture. (FIG. 5B) DD1α-mediated inhibition of T cell activation is modulated by α-PD1 antibodies. […] The proliferation and cytokine production of CD4+ T cells were determined as FIG. 5A. […] The proliferations of CD4+ T cells were determined by percentage of CFSE-diluted CD4+ cells on day 3. The levels of cytokines IFN-γ and IL-2 in culture supernatant were analyzed by ELISA on day 2. (FIG. 5D) DD1α mediates Foxp3+ iTreg cell development. […]
The amount of Ig protein was kept constant at 10 μg/ml by the addition of control Ig protein. […] On day 3, cells were stained with anti-CD4-APC (OKT4, eBioscience for human CD4+ T cells; RM4-5, eBioscience for mouse CD4+ T cells) or anti-CD8-APC (SK1, eBioscience for human CD8+ T cells; 53-6.7, eBioscience for mouse CD8+ T cells) and then analyzed for CFSE dilution by flow cytometry.

The subject of experiment [2] is DD1α. Nature of the experiment: Homophilic interaction assay (Ig protein-coated beads on transfected 293T cells). The format is binding, human. The protocol: (FIG. 3A) Defective apoptotic cell engulfment of DD1α−/− m-BMDMs. Engulfments of Wt and DD1α−/− apoptotic thymocytes by Wt and DD1α−/− BMDMs were assessed by flow cytometry as described previously. The pHrodo-labeled apoptotic thymocytes were incubated with m-BMDMs for 30 min and the phagocytosis was determined by measuring the positive pHrodo-containing macrophages. Graph represents mean±SD from three independent experiments. (FIG. 3B) Homophilic DD1α interaction. […] The binding was examined under an inverted microscope (left panels) and also determined from the optical density (O.D.) at 492 nm (shown at the right). […] Binding was determined by counting the bound cells per 100 μm^2 and normalized by cell number bound to untreated plate. […] The bead bound His-DD1α (33-194) proteins were eluted and detected by immunoblotting using anti-His antibody. […] DD1α-transfected cells were treated or untreated with 1 mM bis(maleinido)hexane (BMH) for 1 hour, and DD1α protein was analyzed by western blotting under non-reducing condition. […] The phagocytosis of MCF7/DD1α KD cells expressing empty vector (EV), DD1α or DD1α-ΔIgV was determined as in FIG. 2A. […]

The test system of experiment [3] is DD1α. The experiment is described as follows: Ig fusion protein staining of 293T transfectants (flow cytometry). Type of experiment: binding, human. Particulars: cell surface staining. The protocol:
The bound Ig fusion proteins were detected with anti-Ig-APC. Empty vector (pcDNA3.1)-transfected cells stained with Ig proteins are shown as a negative control (gray filled) and other staining is shown as black open. […] Purified CD4+ T cells from Wt and DD1α−/− mice were assayed for binding to Ig fused DD1α or PD1 proteins. […] The bound Ig fusion proteins were detected by anti-Ig-APC. Binding amounts were determined by percentage of APC positive cells compared to control Ig protein-bound cells. […] The bead bound proteins were eluted and determined by western blot analysis using anti-HA antibody (asterisks). […] The bead bound proteins were eluted and detected by western blot analysis with anti-DD1α or anti-PD1 antibody (asterisk). […] MCF7 cells were treated by Nutlin-3 (10 μM) for 1 to 3 days. MCF7 cells were transfected with control siRNA or p53 siRNA for 24 hours and treated with CPT (500 nM) or DMSO (control) for 1 and 2 days. The levels of indicated proteins were analyzed by western blot analysis. Total RNAs from control siRNA or p53 siRNA transfected MCF7 cells were assessed for mRNA levels of PD1 or PD-L1 by real-time quantitative PCR.
Target sequence in this assay (Q9H7M9 33-311): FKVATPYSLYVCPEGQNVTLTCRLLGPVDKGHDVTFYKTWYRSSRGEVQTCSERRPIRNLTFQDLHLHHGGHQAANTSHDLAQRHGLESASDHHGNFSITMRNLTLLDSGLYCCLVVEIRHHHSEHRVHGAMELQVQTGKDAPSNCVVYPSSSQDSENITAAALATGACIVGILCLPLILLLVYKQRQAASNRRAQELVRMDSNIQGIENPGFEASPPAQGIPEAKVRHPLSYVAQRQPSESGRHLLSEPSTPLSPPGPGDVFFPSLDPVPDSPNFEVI
On the technique in general: A flow cytometer gives signals particle by particle.

As for “DD1α-Ig: the extracellular region of DD1α fused with the immunoglobulin G Fc segment”, in experiment [1], the “CD8+ T cell proliferation stimulated by anti-CD3” value was “strongly inhibited”. Besides, the “binding to IgV domain-deleted mutant DD1α on the cell surface” value in experiment [2] (293 cells transfected with mutant-DD1α (IgV domain-deletion)) is reported as “abolished this interaction”. In addition, in experiment [2] (293 cells transfected with wt-DD1α), the “binding to complete DD1α proteins expressed on the cell surface” value is recorded as “bound”. Further, the “binding to DD1α-transfected 293T cells” value in experiment [3] is given as “specifically bound”.

Source of the values: patent publication US20170184604A1, “DD1ALPHA RECEPTOR AND USES THEREOF IN IMMUNE DISORDERS” (THE GENERAL HOSPITAL CORPORATION, priority 2014, published 2017).
